{"source": "paper PMC10914731", "about": "“Homo-BacPROTAC-induced degradation of ClpC1 as a strategy against drug-resistant mycobacteria” (Nature Communications, 2024)", "key": {"[1]": {"system": "Mycobacterium intracellulare", "test": "microbe, parasite or virus in culture", "type": "cell-based"}, "[2]": {"type": "in vitro ADME, Rat", "outline": "(§1)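 Read-out: parent loss by HPLC-MS/MS, first-order fit, half-life scaled to %Qh (well-stirred liver model). Conditions: 1 µmol/l cpd, 0.5 mg/ml microsomes, 100 mM Tris-HCl pH 7.5, 6.5 mM MgCl2, 1 mM NADPH, 37 °C; acetonitrile stop at multiple times.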"}, "[3]": {"target": "His6-tagged ClpC1-NTD substrate, M. smegmatis ClpC1P1P2 (UniProt A0R574+P9WPC9)", "sequence (P9WPC9 1-156, looked up, natural form)": "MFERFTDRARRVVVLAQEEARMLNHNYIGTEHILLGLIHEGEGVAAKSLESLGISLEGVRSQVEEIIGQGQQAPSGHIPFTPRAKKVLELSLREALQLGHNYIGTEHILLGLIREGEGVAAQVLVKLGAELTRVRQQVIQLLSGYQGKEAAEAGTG", "sequence (A0R574 whole entry)": "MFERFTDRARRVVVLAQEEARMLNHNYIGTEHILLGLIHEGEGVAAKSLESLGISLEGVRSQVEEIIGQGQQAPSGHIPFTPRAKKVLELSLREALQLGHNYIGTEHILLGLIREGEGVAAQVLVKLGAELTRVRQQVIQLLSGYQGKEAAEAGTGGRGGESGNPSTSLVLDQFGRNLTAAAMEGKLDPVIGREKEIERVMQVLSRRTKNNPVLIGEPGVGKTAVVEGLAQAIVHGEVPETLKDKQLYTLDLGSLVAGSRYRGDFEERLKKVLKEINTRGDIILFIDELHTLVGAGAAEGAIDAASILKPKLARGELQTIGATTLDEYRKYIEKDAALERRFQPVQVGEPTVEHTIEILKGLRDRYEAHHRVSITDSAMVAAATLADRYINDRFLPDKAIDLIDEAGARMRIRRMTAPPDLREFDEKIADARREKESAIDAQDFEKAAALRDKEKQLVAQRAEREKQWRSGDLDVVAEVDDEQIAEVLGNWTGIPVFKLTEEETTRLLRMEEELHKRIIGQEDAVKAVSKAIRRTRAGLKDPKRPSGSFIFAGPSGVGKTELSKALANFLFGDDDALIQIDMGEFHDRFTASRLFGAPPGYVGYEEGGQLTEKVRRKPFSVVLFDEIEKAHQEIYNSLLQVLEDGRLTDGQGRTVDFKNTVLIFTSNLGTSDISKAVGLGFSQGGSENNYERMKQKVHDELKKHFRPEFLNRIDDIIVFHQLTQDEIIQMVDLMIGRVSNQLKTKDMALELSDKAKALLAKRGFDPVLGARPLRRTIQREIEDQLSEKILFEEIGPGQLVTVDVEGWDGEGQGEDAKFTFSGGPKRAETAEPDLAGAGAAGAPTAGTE", "test": "biochemical", "type": "biochemical", "conditions": "for % Response / ClpC1-NTD peak area: Figure 4a source data, well replicates"}, "[4]": {"system": "replicating Mtb H37Rv cells", "test": "Resazurin growth assay, replicating Mtb H37Rv (Supplementary Fig. 2)", "type": "cell-based, Mycobacterium tuberculosis", "conditions": "three replicate columns"}, "Enterobacter cloacae": {"system": "Enterobacter cloacae", "test": "MIC ESKAPES panel, Enterobacter cloacae", "type": "cell-based", "description": "(§2) Minimum inhibitory concentration (MIC) against ESKAPES panel of Gram positive and Gram negative pathogens (Enterococcus faecium, Staphylococcus aureus, Klebsiella pneumoniae, Acinetobacter baumannii, Pseudomonas aeruginosa, Enterobacter cloacae and Salmonella typhimurium [ESKAPES panel]) were determined at the FNDR by the standard broth dilution method [CLSI, M100]. […] Mueller Hinton broth (MHB) medium was used to grow ESKAPES panel strains. The individual cultures were added as 200 μL (inoculum of 3–7 × 10^5 cfu/ml) to the respective assay plates in each well to all columns, except the media control (200 μL of medium). […] The assay plates were incubated at 37 °C, and the results were noted on the 2nd day as turbidometric readout. The clear wells indicated inhibition of growth, while the turbid wells indicated uninhibited growth."}, "Msm 700084": {"system": "Msm 700084", "test": "microbe, parasite or virus in culture", "type": "cell-based", "conditions": "Mycolicibacterium smegmatis, 700084; read-out: MIC Msm 700084"}, "[5]": {"type": "in vitro ADME, Rat", "conditions": "clearance in hepatocytes"}, "[6]": {"test": "Microsomal stability, human", "type": "in vitro ADME", "outline": "as §1"}, "Mycobacterium fortuitum": {"system": "Mycobacterium fortuitum", "test": "microbe, parasite or virus in culture", "type": "cell-based"}, "Mycobacterium avium": {"system": "Mycobacterium avium", "test": "microbe, parasite or virus in culture", "type": "cell-based"}, "Acinetobacter baumannii": {"system": "Acinetobacter baumannii", "test": "MIC ESKAPES panel, Acinetobacter baumannii", "type": "cell-based", "description": "as §2"}, "Salmonella typhimurium": {"system": "Salmonella typhimurium", "test": "MIC ESKAPES panel, Salmonella typhimurium", "type": "cell-based", "description": "as §2"}, "[7]": {"conditions": "Experiment 2, three replicate columns"}, "[8]": {"conditions": "Gram-Negative Bacteria, replicates 1-3, listed as 8 (UdSBI-0545)"}}, "note": "“And” between values parts separate entries of the source, which are not always exact repeats. Equal values may be shown once. Read-outs that look alike come from different tables or passages of the source."}
{"compound": "COC(c1ccccc1)C1NC(=O)C(C)NC(=O)C(CC(C)CO)N(C)C(=O)C(Cc2cn(Cc3cn(CCOCCOCCOCCOCCn4cc(Cn5cc(CC6NC(=O)C(C(C)C)NC(=O)C(CC(C)C)N(C)C(=O)C(C(C)C)NC(=O)C(C(OC)c7ccccc7)NC(=O)C(C)NC(=O)C(CC(C)CO)N(C)C6=O)c6ccccc65)nn4)nn3)c3ccccc23)NC(=O)C(C(C)C)NC(=O)C(CC(C)C)N(C)C(=O)C(C(C)C)NC1=O", "note": "(stereo not drawn) [Compound 8]", "values": [{"measurement": "MIC", "setting": "[1]; Experiment 1, listed as 8 (UdSBI-0545), read-out: MIC Mycobacterium intracellulare", "value": ">50", "unit": "µM"}, {"measurement": "MIC (µg/ml) Mycobacterium intracellulare", "setting": "[1]; [7]", "value": ">108.53", "unit": "µg/mL"}, {"measurement": "MIC", "setting": "[1]; Experiment 2, three replicate columns, read-out: MIC (µM) Mycobacterium intracellulare", "value": ">50", "unit": "µM"}, {"measurement": "MIC", "setting": "[1]; Mycobacterium intracellulare, Experiment 1, read-out: MIC Mycobacterium intracellulare", "value": "> 109", "unit": "µg/mL"}, {"measurement": "MIC", "setting": "[1]; Mycobacterium intracellulare, Experiment 2, three replicate columns, read-out: MIC (µM) Mycobacterium intracellulare", "value": "> 50", "unit": "µM"}, {"measurement": "MIC", "setting": "[1]; Mycobacterium intracellulare, Experiment 2, three replicate columns, read-out: MIC (µg/ml) Mycobacterium intracellulare", "value": "> 109", "unit": "µg/mL"}, {"measurement": "MIC", "setting": "[1]; Mycobacterium intracellulare, mean ± SD, read-out: MIC Mycobacterium intracellulare", "value": "> 50", "unit": "µM"}, {"measurement": "Microsomal Stability Rat QH", "setting": "[2]; Rat", "value": "43% and 48.3% and 40.9%"}, {"measurement": "Microsomal Stability Rat", "setting": "[2]; clearance in microsomes", "value": 40, "unit": "%Qh"}, {"measurement": "DC50", "setting": "[3]; Msm, Measurement 1-6, read-out: DC50, single measurements", "value": "9 µM and 8.5 µM and 6 µM and 8.1 µM and 8.2 µM"}, {"measurement": "DC50", "setting": "[3]; cell-free degradation of ClpC1-NTD, 90 min, read-out: DC50 M.smegmatis ClpC1P1P2 Mean", "value": 8, "unit": "µM"}, {"measurement": "% Response", "setting": "[3]; conc. 0.4 µM", "value": "120.356% and 117.751% and 102.838% and 93.7015% and 104.532% and 103.754% and 118.347% and 117.353% and 124.609%"}, {"measurement": "ClpC1-NTD peak area", "setting": "[3]; conc. 0.4 µM", "value": "613438 and 713203 and 1462174 and 1713249 and 1751036 and 1183458 and 1105910 and 1047700 and 547599"}, {"measurement": "% Response", "setting": "[3]; conc. 33.3 µM", "value": "25.9293% and 29.5058% and 21.1338% and 16.911% and 37.0492% and 22.8094% and 15.8145% and 16.4069% and 19.2475%"}, {"measurement": "ClpC1-NTD peak area", "setting": "[3]; conc. 33.3 µM", "value": "245614 and 155160 and 213594 and 218458 and 306322 and 219308 and 255600 and 176271 and 124945"}, {"measurement": "% Response", "setting": "[3]; conc. 100.0 µM", "value": "31.4886% and 23.4001% and 28.8941% and 17.4698% and 14.335% and 19.5877% and 11.6161% and 9.907% and 14.2139%"}, {"measurement": "ClpC1-NTD peak area", "setting": "[3]; conc. 100.0 µM", "value": "99143.4 and 153042 and 198962 and 150433 and 187091 and 243688 and 174896 and 223232 and 140724"}, {"measurement": "Supplementary Figure 2 dose-response value, replicating H37Rv cells", "setting": "[4]; Conc. 0.0488281 µM", "value": "104.399 and 96.7961 and 102.12"}, {"measurement": "Supplementary Figure 2 dose-response value, replicating H37Rv cells", "setting": "[4]; Conc. 0.0976562 µM", "value": "93.8283 and 89.4675 and 92.0871"}, {"measurement": "Supplementary Figure 2 dose-response value, replicating H37Rv cells", "setting": "[4]; Conc. 0.195312 µM", "value": "90.4271 and 81.4889 and 87.4903"}, {"measurement": "Supplementary Figure 2 dose-response value, replicating H37Rv cells", "setting": "[4]; Conc. 0.390625 µM", "value": "51.3931 and 36.6199 and 50.2013"}, {"measurement": "Supplementary Figure 2 dose-response value, replicating H37Rv cells", "setting": "[4]; Conc. 0.78125 µM", "value": "-3.993 and -4.461 and -3.242"}, {"measurement": "Supplementary Figure 2 dose-response value, replicating H37Rv cells", "setting": "[4]; Conc. 1.5625 µM", "value": "-4.627 and -5.471 and -5.181"}, {"measurement": "Supplementary Figure 2 dose-response value, replicating H37Rv cells", "setting": "[4]; Conc. 3.125 µM", "value": "-6.152 and -6.465 and -5.866"}, {"measurement": "Supplementary Figure 2 dose-response value, replicating H37Rv cells", "setting": "[4]; Conc. 6.25 µM", "value": "-7.417 and -8.76 and -6.686"}, {"measurement": "Supplementary Figure 2 dose-response value, replicating H37Rv cells", "setting": "[4]; Conc. 25 µM", "value": "-8.655 and -4.856 and -8.241"}, {"measurement": "Supplementary Figure 2 dose-response value, replicating H37Rv cells", "setting": "[4]; Conc. 50 µM", "value": "-5.541 and -9.178 and -8.98"}, {"measurement": "Supplementary Figure 2 dose-response value, replicating H37Rv cells", "setting": "[4]; Conc. 100 µM", "value": "-7.259 and -9.127 and -7.68"}, {"measurement": "MIC", "setting": "Enterobacter cloacae; Enterobacter cloacae, Gram negative, n = 3 well replicates", "value": "> 50", "unit": "µM"}, {"measurement": "MIC", "setting": "Enterobacter cloacae; Enterobacter cloacae, Gram-Negative Bacteria, replicates 1-3", "value": "> 109", "unit": "µg/mL"}, {"measurement": "MIC", "setting": "Enterobacter cloacae; [8]", "value": ">50", "unit": "µM"}, {"measurement": "MIC", "setting": "Msm 700084", "value": "8.3 ± 5.1", "unit": "µM"}, {"measurement": "Hepatocyte Rat", "setting": "[5]", "value": 6, "unit": "%Qh"}, {"measurement": "Microsomal Stability Human QH", "setting": "[6]; Human", "value": ">88.4 >88.4 >88.4%"}, {"measurement": "Microsomal Stability Human", "setting": "[6]; clearance in microsomes", "value": "> 88", "unit": "%Qh"}, {"measurement": "MIC", "setting": "Mycobacterium fortuitum; Experiment 1, listed as 8 (UdSBI-0545), read-out: MIC Mycobacterium fortuitum", "value": ">50", "unit": "µM"}, {"measurement": "MIC (µg/ml) Mycobacterium fortuitum", "setting": "Mycobacterium fortuitum; [7]", "value": ">108.53", "unit": "µg/mL"}, {"measurement": "MIC", "setting": "Mycobacterium fortuitum; Experiment 2, three replicate columns, read-out: MIC (µM) Mycobacterium fortuitum", "value": ">50", "unit": "µM"}, {"measurement": "MIC", "setting": "Mycobacterium fortuitum; Mycolicibacterium fortuitum, Experiment 1, read-out: MIC Mycobacterium fortuitum", "value": "> 109", "unit": "µg/mL"}, {"measurement": "MIC", "setting": "Mycobacterium fortuitum; Mycolicibacterium fortuitum, Experiment 2, three replicate columns, read-out: MIC (µM) Mycobacterium fortuitum", "value": "> 50", "unit": "µM"}, {"measurement": "MIC", "setting": "Mycobacterium fortuitum; Mycolicibacterium fortuitum, Experiment 2, three replicate columns, read-out: MIC (µg/ml) Mycobacterium fortuitum", "value": "> 109", "unit": "µg/mL"}, {"measurement": "MIC", "setting": "Mycobacterium fortuitum; Mycolicibacterium fortuitum, mean ± SD, read-out: MIC Mycobacterium fortuitum", "value": "> 50", "unit": "µM"}, {"measurement": "MIC", "setting": "Mycobacterium avium; Experiment 1, listed as 8 (UdSBI-0545), read-out: MIC Mycobacterium avium", "value": ">50", "unit": "µM"}, {"measurement": "MIC (µg/ml) Mycobacterium avium", "setting": "Mycobacterium avium; [7]", "value": ">108.53", "unit": "µg/mL"}, {"measurement": "MIC", "setting": "Mycobacterium avium; Experiment 2, three replicate columns, read-out: MIC (µM) Mycobacterium avium", "value": ">50", "unit": "µM"}, {"measurement": "MIC", "setting": "Mycobacterium avium; Mycobacterium avium, Experiment 1, read-out: MIC Mycobacterium avium", "value": "> 109", "unit": "µg/mL"}, {"measurement": "MIC", "setting": "Mycobacterium avium; Mycobacterium avium, Experiment 2, three replicate columns, read-out: MIC (µM) Mycobacterium avium", "value": "> 50", "unit": "µM"}, {"measurement": "MIC", "setting": "Mycobacterium avium; Mycobacterium avium, Experiment 2, three replicate columns, read-out: MIC (µg/ml) Mycobacterium avium", "value": "> 109", "unit": "µg/mL"}, {"measurement": "MIC", "setting": "Mycobacterium avium; Mycobacterium avium, mean ± SD, read-out: MIC Mycobacterium avium", "value": "> 50", "unit": "µM"}, {"measurement": "MIC", "setting": "Acinetobacter baumannii; Gram negative, n = 3 well replicates, read-out: MIC Acinetobacter baumanii", "value": "> 50", "unit": "µM"}, {"measurement": "MIC", "setting": "Acinetobacter baumannii; Gram-Negative Bacteria, replicates 1-3, read-out: MIC Acinetobacter baumannii", "value": "> 50 µM and > 109 µg/mL"}, {"measurement": "MIC", "setting": "Salmonella typhimurium; [8]", "value": ">50", "unit": "µM"}, {"measurement": "MIC", "setting": "Salmonella typhimurium; Salmonella enterica, TYPHIMURIUM, Gram negative, n = 3 well replicates", "value": "> 50", "unit": "µM"}, {"measurement": "MIC", "setting": "Salmonella typhimurium; Salmonella enterica, TYPHIMURIUM, Gram-Negative Bacteria, replicates 1-3", "value": "> 109", "unit": "µg/mL"}]}
